The subject of one series is HSV-2(G). Nature of the series: Viral plaque assay with HSV-2(G). Format: cell-based. Particulars: 5 μM R5421 pretreatment, drug added back to overlay, plaques 48 h post-infection.
In a further series the test system is HSV-2(333ZAG). Format: cell-based. Conditions: Vk2E6/E7 cells, R5421 pretreatment.
The test system of a further series is HSV-1(VP26GFP). Format: cell-based. Conditions: Vk2E6/E7 cells, R5421 pretreatment.
For series [1], the system named is phosphatidylserines (PtdS), Akt, PLSCR1 at the outer leaflet of the plasma membrane. The series is described as follows: Confocal imaging of HSV-induced externalization of PtdS, Akt and PLSCR1 in non-permeabilized cells. Format: cell-based, human.
The subject of another series is HSV-1. Particulars: sporadic fatal encephalitis; optimal intravenous acyclovir therapy; cited from earlier work.
A further series deals with PLSCR1. The series is described as follows: Ionomycin activation of PLSCR1 (microscopy, co-immunoprecipitation/anti-phosphotyrosine blot). It is filed as cell-based, human. Conditions: CaSki cells; 1 μM ionomycin; 15 minutes; immunoblotting. On the procedure: (§1) FIG. 9A-9E. Ionomycin activates phospholipid scramblase leading to externalization of phosphatidylserines and Akt. (A). CaSki cells were treated with ionomycin (1 μM), HSV-2(G) (MOI 5 pfu/cell) or DMSO (0.1%) for 15 minutes and then fixed and stained with antibodies to PLSCR1 (polyclonal rabbit and Alexa 555, red), PtdS (monoclonal antibody and Alexa555, red), or Akt (polyclonal rabbit and secondary Alexa488, green) as indicated. Nuclei were stained blue with DAPI. Images are representative of results obtained from 2-3 independent experiments; bar=10 μm. Five fields were scanned and mean fluorescence intensity (MFI) per cell calculated using ImageJ software (NIH); results are mean+SEM and the asterisks indicate significant differences by ANOVA compared to DMSO control treated cells. (B). CaSki cells were treated as in A for 15 minutes and then cell lysates were harvested, incubated with a goat anti-PLSCR1 antibody and immune complexes precipitated with protein G-agarose and analyzed by Western blotting with a mouse anti-phosphotyrosine mAb (PY20) or mouse anti-PLSCR1 Ab. […] (C). […] Cell surface proteins were biotinylated and precipitated with streptavidin magnetic beads and the pellet analyzed by immunoblotting with rabbit anti-pAktThr^308 or mouse anti-pAktS^473 1 Abs. In parallel, cellular lysates were analyzed by immunoblotting for total cellular Akt (rabbit polyclonal Ab). […]
On the technique in general: Immunoblotting shows a protein as a band on a membrane.

For the next series, the system named is Akt. The series is described as follows: Ionomycin-induced Akt phosphorylation (biotinylation of cell surface proteins, immunoblot). Format: cell-based, human. Particulars: CaSki cells; 1 μM ionomycin; 5 or 15 minutes; immunoblotting. On the procedure:
as §1

The test system of a further series is CaSki and HaCAT cells. Particulars: 3 independent experiments, FIG. 13.

Consider `O=C(O)C(=O)O` [R5421, ethanedioic acid], for which the “reduction of HSV-2 plaque formation relative to DMSO treated controls” value was determined as 88±7% in the series on HSV-2(G) (CaSki cells), 71.7±7% in the series with HSV-2(G) (HaCAT cells) and 95±6% in the series on HSV-2(G) (VK2E6/E7 cells). For the same molecule, the “infection, percentage of GFP positive cells 16 h pi” value with HSV-2(333ZAG) and in the series on HSV-1(VP26GFP) was “reduced” each time. In addition, the “PtdS and Akt externalization” value in series [1] was “prevented PtdS and Akt externalization”. In series [1] (CaSki cells, 5 μM R5421 15 min pretreatment, […]), the “viral induced externalization of PtdS” value is “prevented the viral induced externalization of PtdS”. Also, in series [1] (R5421 added 30 min pi, CaSki, […]), the “PtdS and Akt at the outer leaflet” value was “persistence of PtdS and Akt at the outer leaflet for up to 4 h pi”.
With `CC(=O)OCOC(=O)CN(CC(=O)OCOC(C)=O)c1ccccc1OCCOc1ccccc1N(CC(=O)OCOC(C)=O)CC(=O)OCOC(C)=O` [BAPTA-AM], the “number of cells with detectable PtdS, Akt, or PLSCR1 at the outer leaflet” value in series [1] (100 μM pretreatment, CaSki, […]) was “significantly reduced”.
Consider `Nc1nc2c(ncn2COCCO)c(=O)[nH]1` [acyclovir, 9-[2-hydroxymethyl]guanine], for which, in the series with HSV-1, the mortality was 14-19% and the “survivors who resume a normal lifestyle” value is given as less than 50%.
Take `C[C@H](CCC(=O)O)C[C@H](C)C[C@H](C)C(=O)/C=C(\O)[C@H](C)C[C@H](C)C/C=C/[C@@H](C)[C@@H](O)[C@@H](C)[C@@H](O)C[C@@H]1CC[C@@](C)([C@H]2CC[C@@](C)([C@@H](C)O)O2)O1` [ionomycin]: the “phosphorylated PLSCR1” value in the series on PLSCR1 is reported as “an increase in phosphorylated PLSCR1”. In addition, the “phosphorylated Akt” value in the series on Akt is “phosphorylated Akt (both at the threonine 308 and serine 473 sites)”.
Regarding Nonoxynol-9 [N9], the “cytotoxicity, cell viability as percentage of control” value in the series on CaSki and HaCAT cells is listed as “kills cells”.
